Drawing on US20240246960A1 (adMare Therapeutics Society, priority 2021, published 2024), this text covers IC50 for four compounds.

A word on the IC50: it is the concentration that inhibits the measured activity by half.

In one assay the target is T1, DNA-PK (Homo sapiens, UniProt P78527).
T1 construct: purchased Invitrogen PR9107A
As to the kind of experiment: DNA-PK Assay for Biochemical Enzymatic Inhibition (ADP Glo Kinase assay). Conditions: Table 1. In a few lines:
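Human DNA-PK (25 ng) preincubated 15 min with compounds (ten three-fold dilutions) in HEPES pH 7.5, MgCl2, KCl, calf thymus DNA buffer, then substrate 434.4 μM and ATP 64.4 μM (final) for 60 min at room temperature. ADP-Glo luminescence; percent inhibition fitted by four-parameter regression for IC50.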

In assay [1] the target is T2, DNA-PK phosphorylation at Serine 2056 (Homo sapiens, UniProt P78527).
T2 construct: host or cells: FaDu
Nature of the assay: Cellular Assay for Inhibition of DNA-PK Phosphorylation at Serine 2056 (FaDu cells, neocarzinostatin, sandwich ELISA). Type of assay: cell-based. Conditions: Table 1. In a few lines: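 Readout was pSer2056 and total DNA-PK, measured by sandwich ELISA on protein-normalized lysates. Prior to lysis, compound was applied to FaDu cells for 1 h (0.3% DMSO), followed by 2 h of 1 μg/mL neocarzinostatin. IC50 values were fitted from log concentration versus % inhibition normalized to DMSO and NCS controls.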
In general terms: An ELISA detects its analyte on a solid surface through an enzyme-linked reagent.

In the case of `CS(=O)(=O)Nc1cnc2cc(N3CCOCC3)nc(O[C@H]3CC[C@@H](n4ccnc4)CC3)c2c1` [Compound 161, N-(5-(((1s,4s)-4-(1H-imidazol-1-yl)cyclohexyl)oxy)-7-morpholino-1,6-naphthyridin-3-yl)methanesulfonamide], the results for the IC50 (at DNA-PK; in assay [1]) were less than 0.5 nM and 100 to 1000 nM, respectively.
On the same counts, the results for `CS(=O)(=O)Nc1cnc2cc(N3CCOCC3)nc(O[C@H]3CC[C@@H](Nc4ncccn4)CC3)c2c1` [Compound 185, N-(7-morpholino-5-(((1s,4s)-4-(pyrimidin-2-ylamino)cyclohexyl)oxy)-1,6-naphthyridin-3-yl)methanesulfonamide] are less than 0.5 nM and less than 100 nM.
In the case of `COc1cnc(N[C@H]2CC[C@@H](Oc3nc(N4CCOCC4)cc4ncc(NS(C)(=O)=O)cc34)CC2)nc1` [Compound 203, N-(5-(((1s,4s)-4-((5-methoxypyrimidin-2-yl)amino)cyclohexyl)oxy)-7-morpholino-1,6-naphthyridin-3-yl)methanesulfonamide], the IC50 at DNA-PK was less than 0.5 nM; in assay [1] it was less than 100 nM.
On the same counts, the results for `CS(=O)(=O)Nc1cnc2cc(N3CCOCC3)nc(O[C@H]3CC[C@@H](NC(=O)c4ncco4)CC3)c2c1` [Compound 205, N-((1s,4s)-4-((3-(methylsulfonamido)-7-morpholino-1,6-naphthyridin-5-yl)oxy)cyclohexyl)oxazole-2-carboxamide] are 0.5 to 1 nM and less than 100 nM.
